Source: EP3685668B1, “COMPOSITION COMPRISING ACIBENZOLAR-S-METHYL AS EFFECTIVE INGREDIENT FOR CONTROLLING BURSAPHELENCHUS XYLOPHILUS DISEASE AND METHOD FOR CONTROLLING BURSAPHELENCHUS XYLOPHILUS USING SAME” (Industry Foundation of Chonnam National University, priority 2017, dated 2019)

What was measured:
[1] = test system: PR_1b family; assay: qRT-PCR expression of induced resistance gene in pine tree callus; format: cell-based; conditions: 200 µg/mℓ, 24 hours
Protocol: (§1) For in vitro analysis of induced resistance, the expression of PR genes and other plant defense-related genes was determined, which are evolved in various defense mechanisms including induced resistance. The primers of sixteen induced resistance-related genes of pine tree used in this invention were listed in the below and elongation factor_1 alpha were used as a reference gene. [Table 4] The primer list of defense resistance-related genes
(§2) After the treatment with 200 µg / mℓ of candidates of the selected induced resistance material, expression of the induced resistance-related gene in pine callus was determined by qRT-PCR using the primer pairs of defense resistance-related genes in Table 4. As a candidate group of an induced resistance material in pine tree, acibenzolar-S-methyl (ASM), TDL (Tiadinil), ITL (Isotianil), PBZ (Probenzole), AZO (Azoxystrobin), VMA (Validamycin A), MeJA (Methyl jasmonate), BABA (DL-3-aminobutyric acid), 2,3-BDO (2,3-Butanediol), GABA (r-Aminobutyric acid), glucan (Glucan), ER (Ergosterol), and AZA (Azelaic acid) were used. For the in vitro analysis of the expression of induced resistance gene in pine callus, the selected induced resistance materials were applied with 500 µℓ of LM liquid medium on a surface of pine tree callus (100 mg) in 12-well microplate to give final concentration of 200 µg/mℓ. Then, the callus surface was sufficiently reacted for 24 hours with the candidate of pine tree induced resistance material by shaking at 50 rpm in a 25 °C shaking incubator under dark condition. RNAs were extracted from the callus after completion of the reaction with an induced resistance material, followed by synthesis of cDNAs. Then, by carrying out qRT-PCR, the expression of induced resistance genes was determined. [Table 5] Expression of induced resistance gene in pine tree callus by TDL, PBZ, ASM, ITL, AZO, VMA, glucan, and AZA
(§3) Based on the results of assay using young plants and gene expression by selected induce resistance materials, it seemed that acibenzolar-S-methyl had the most excellent effect. Thus, the following tests were carried out using acibenzolar-S-methyl only. Expression of the induced resistance genes at different culture time after the chemical treatment was examined. For the in vitro assay, LM medium containing pine tree callus was treated with acibenzolar-S-methyl at concentration of 200 µg / mℓ, followed by reaction for 1 day, 7 days, or 14 days in a 25°C shaking incubator under dark condition. RNAs were extracted from the callus after the reaction followed by synthesis of cDNAs. Then, by carrying out qRT-PCR, the expression of the induced resistance genes was determined. Depending on reaction time after the treatment, i.e., after 1 day, 7 days, or 14 days, the expression of the obtained induced resistance genes was examined. As a result of the in vitro callus assay depending on reaction time after the treatment with acibenzolar-S-methyl, the expression of the induced resistance-related genes is the highest at 1 day after the treatment with acibenzolar-S-methyl and gradually diminished over time, as it is shown in Table 7. In this regard, it is contemplated that the expression of genes acquired by acibenzolar-S-methyl is not maintained in highly expressed state until the pathogen invasion and just memorized with at minimum level so that the energy consumption by plant can be efficiently managed. [Table 7] Expression of induced resistance gene in pine tree callus by acibenzolar-S-methyl depending on reaction time
(§4) To have an in vitro assay according to different methods of treatment with acibenzolar-S-methyl, two separate treatment methods, i.e., surface treatment (spraying treatment) of pine tree callus and direct application of the induced resistance material to an LM medium containing pine tree callus, were performed. […]

[2] = test system: Heat shock 70; assay: as above; format: cell-based; conditions: 200 µg/mℓ, 24 hours
Protocol: as §1, §2, §3, §4

[3] = test system: PR_2 family; assay: as above; format: cell-based; conditions: 200 µg/mℓ, 24 hours
Protocol: as §1, §2, §3, §4

[4] = test system: Metallothionein; assay: as above; format: cell-based; conditions: 200 µg/mℓ, 24 hours
Protocol: as §1, §2, §3, §4

[5] = test system: PR_9 family; assay: as above; format: cell-based; conditions: 200 µg/mℓ, 24 hours
Protocol: as §1, §2, §3, §4

[6] = test system: PR_5 family; assay: as above; format: cell-based; conditions: 200 µg/mℓ, 24 hours
Protocol: as §1, §2, §3, §4

[7] = test system: Xyloglucan; assay: as above; format: cell-based; conditions: 200 µg/mℓ, 24 hours
Protocol: as §1, §2, §3, §4

[8] = test system: Extensin; assay: as above; format: cell-based; conditions: 200 µg/mℓ, 24 hours
Protocol: as §1, §2, §3, §4

[9] = test system: Antipeptide; assay: as above; format: cell-based; conditions: 200 µg/mℓ, 24 hours
Protocol: as §1, §2, §3, §4

[10] = test system: PR_4 family; assay: as above; format: cell-based; conditions: 200 µg/mℓ, 24 hours
Protocol: as §1, §2, §3, §4

[11] = test system: Hydroxyproline; assay: as above; format: cell-based; conditions: 200 µg/mℓ, 24 hours
Protocol: as §1, §2, §3, §4

[12] = test system: Bursaphelenchus xylophilus; assay: Occurrence of pine wilt disease after trunk injection of induced resistance candidate materials, in vivo test in young red pine trees; conditions: red pine tree (Pinus densiflora), 30 days after inoculation; for Occurrence rate of pine wilt disease: Number of pine trees showing wilt symptoms / Number of pine trees used for the test: trunk injection 100 µℓ per tree; for Number of pine trees showing wilt symptoms only at growing points of a stem: trunk injection
Method in brief: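 Two-year-old Pinus densiflora seedlings received 100 µℓ trunk injection of elicitor at 200, 20 or 2 µg/mℓ, 5–10 cm above soil. One week later, 2,000 Botrytis-reared nematodes were bark-inoculated per tree; disease occurrence scored 30 days post-inoculation.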

Structure (SMILES)	Expression of induced resistance gene, PR_1b family [1]	Expression of induced resistance gene, Heat shock 70 [2]	Expression of induced resistance gene, PR_2 family [3]	Expression of induced resistance gene, Metallothionein [4]	Expression of induced resistance gene, PR_9 family [5]	Expression of induced resistance gene, PR_5 family [6]	Expression of induced resistance gene, Xyloglucan [7]	Expression of induced resistance gene, Extensin [8]	Expression of induced resistance gene, Antipeptide [9]	Expression of induced resistance gene, PR_4 family [10]	Expression of induced resistance gene, Hydroxyproline [11]	Occurrence rate of pine wilt disease: Number of pine trees showing wilt symptoms / Number of pine trees used for the test ([12]; 2 µg/mℓ)	Occurrence rate of pine wilt disease: Number of pine trees showing wilt symptoms / Number of pine trees used for the test ([12]; 20 µg/mℓ)	Occurrence rate of pine wilt disease: Number of pine trees showing wilt symptoms / Number of pine trees used for the test ([12]; 200 µg/mℓ)	Number of pine trees showing wilt symptoms only at growing points of a stem ([12]; 2 µg/mℓ)	Number of pine trees showing wilt symptoms only at growing points of a stem ([12]; 20 µg/mℓ)	Number of pine trees showing wilt symptoms only at growing points of a stem ([12]; 200 µg/mℓ)
OCC1=C[C@@H](N[C@H]2C[C@H](CO)[C@@H](O[C@H]3O[C@@H](CO)[C@H](O)[C@@H](O)[C@@H]3O)[C@H](O)[C@H]2O)[C@H](O)[C@@H](O)[C@@H]1O [VMA, Validamycin A]	0.73	2.19	0.83	0.99	1.37	4.66	1.99	0.66	2.36	1.43	2.31	2/3	1/3	2/3	2	1	1
CC(C)[C@@H](C)/C=C/[C@@H](C)[C@H]1CC[C@H]2C3=CC=C4C[C@@H](O)CC[C@]4(C)[C@H]3CC[C@]12C [ER, Ergosterol]	1.14	1.91	1.17	1.37	1.35	1.05	1.05	1.06	2.11	1.13	1.42	3/3	0/3	1/3	1		
NCCCC(=O)O [GABA, r-Aminobutyric acid]	1.78	2.58	1.66	0.92	0.7	3.78	3.46	1.83	1.13	1.95	5.98	3/3	1/3	0/3	1	1	
O=C(O)CCCCCCCC(=O)O [AZA, Azelaic acid]	1.15	1.42	1.02	1.97	1.27	1.45	0.76	1.15	1.43	0.99	0.9	2/3	2/3	2/3		1	2
Cc1ccc(NC(=O)c2snnc2C)cc1Cl [TDL, Tiadinil]	1.05	0.29	0.98	0.1	1.48	1.33	1.23	1.05	0.64	1.24	0.97	3/3	2/3	1/3	3	2	1
CC(O)C(C)O (centres unmarked) [2,3-BDO, 2,3-Butanediol]	4.36	1.29	1.26	2.53	1.22	1.13	1.13	1.07	1.31	1.41	0.83	2/3	3/3	1/3	2	1	1
